Measured values published in ChEMBL document CHEMBL1201862, “PubChem BioAssay data set” (2004).
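Where inhibition never reached the appropriate level, the endpoint shown equals the highest concentration tested. Otherwise, values were interpolated linearly from a five-concentration, 48-hour dose response in 96-well plates. Here, GI50 denotes the concentration required for 50% inhibition of growth.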 Active and inactive are the calls of the source. No stated cut-off is given here; in the data, active = GI50 up to about 1.1 µM and inactive = higher.

Tests used:
Experiment in all cases: growth of human tumour cells (NCI), 48 h
786-0 = test system: 786-0
A549 = test system: A549
ACHN = test system: ACHN
BT-549 = test system: BT-549
CAKI-1 = test system: CAKI-1
CCRF-CEM = test system: CCRF-CEM
COLO 205 = test system: COLO 205
DU-145 = test system: DU-145
EKVX = test system: EKVX
HCC 2998 = test system: HCC 2998
HCT-116 = test system: HCT-116
HCT-15 = test system: HCT-15
HL-60 = test system: HL-60
HOP-62 = test system: HOP-62
HOP-92 = test system: HOP-92
HT-29 = test system: HT-29
Hs-578T = test system: Hs-578T
IGROV-1 = test system: IGROV-1
KM12 = test system: KM12
LOX IMVI = test system: LOX IMVI
M14 = test system: M14
MCF7 = test system: MCF7
MDA-MB-231 = test system: MDA-MB-231
MDA-MB-435 = test system: MDA-MB-435
MDA-N = test system: MDA-N
MOLT-4 = test system: MOLT-4
NCI-H226 = test system: NCI-H226
NCI-H23 = test system: NCI-H23
NCI-H460 = test system: NCI-H460
NCI-H522 = test system: NCI-H522
NCI/ADR-RES = test system: NCI/ADR-RES
OVCAR-3 = test system: OVCAR-3
OVCAR-4 = test system: OVCAR-4
OVCAR-5 = test system: OVCAR-5
OVCAR-8 = test system: OVCAR-8
PC-3 = test system: PC-3
RXF 393 = test system: RXF 393
SF-268 = test system: SF-268
SF-295 = test system: SF-295
SF-539 = test system: SF-539
SK-MEL-28 = test system: SK-MEL-28
SK-MEL-2 = test system: SK-MEL-2
SK-MEL-5 = test system: SK-MEL-5
SK-OV-3 = test system: SK-OV-3
SN12C = test system: SN12C
SNB-19 = test system: SNB-19
SNB-75 = test system: SNB-75
SW-620 = test system: SW-620
TK-10 = test system: TK-10
U-251 = test system: U-251
UACC-257 = test system: UACC-257
UACC-62 = test system: UACC-62
UO-31 = test system: UO-31
A498 = test system: A498
Malme-3M = test system: Malme-3M
RPMI-8226 = test system: RPMI-8226
K562 = test system: K562
SR = test system: SR
T47D = test system: T47D

Measured: GI50

CC(=O)C1C(=O)C(=O)N(c2ccccc2)C1=O (stereo not drawn)
inactive: 786-0 > 100 µM | A549 > 100 µM | ACHN > 100 µM | BT-549 > 100 µM | CAKI-1 > 100 µM | CCRF-CEM > 100 µM | COLO 205 > 100 µM | DU-145 > 100 µM | EKVX > 100 µM | HCC 2998 > 100 µM | HCT-116 > 100 µM | HL-60 > 100 µM | HOP-62 > 100 µM | HOP-92 > 100 µM | HT-29 > 100 µM | Hs-578T > 100 µM | IGROV-1 > 100 µM | KM12 > 100 µM | LOX IMVI > 100 µM | M14 > 100 µM | MCF7 > 100 µM | MDA-MB-231 > 100 µM | MDA-MB-435 > 100 µM | MDA-N > 100 µM | MOLT-4 > 100 µM | NCI-H226 > 100 µM | NCI-H23 > 100 µM | NCI-H460 > 100 µM | NCI-H522 > 100 µM | NCI/ADR-RES > 100 µM | OVCAR-3 > 100 µM | OVCAR-4 > 100 µM | OVCAR-5 > 100 µM | OVCAR-8 > 100 µM | PC-3 > 100 µM | RXF 393 > 100 µM | SF-268 > 100 µM | SF-295 > 100 µM | SF-539 > 100 µM | SK-MEL-28 > 100 µM | SK-MEL-2 > 100 µM | SK-MEL-5 > 100 µM | SK-OV-3 > 100 µM | SN12C > 100 µM | SNB-19 > 100 µM | SNB-75 > 100 µM | SW-620 > 100 µM | TK-10 > 100 µM | U-251 > 100 µM | UACC-257 > 100 µM | UACC-62 > 100 µM | UO-31 > 100 µM
> 100 µM: HCT-15

O=C(O)c1ccccc1/N=N\c1c(O)c(S(=O)(=O)O)cc2cc(S(=O)(=O)O)ccc12
active: BT-549 0.201 µM | HL-60 < 0.01 µM | Malme-3M 0.0711 µM | NCI-H226 0.0239 µM | NCI-H522 0.0231 µM | NCI/ADR-RES 1.06 µM | OVCAR-4 0.0962 µM
inactive: A498 > 100 µM | A549 1.82 µM | COLO 205 1.2 µM | HCC 2998 > 100 µM | HCT-116 1.63 µM | Hs-578T 1.97 µM | LOX IMVI > 100 µM | M14 3.83 µM | MCF7 > 100 µM | MDA-MB-435 2.65 µM | MDA-N 2.41 µM | NCI-H460 > 100 µM | RPMI-8226 1.35 µM | SF-268 1.8 µM | SK-MEL-5 4.72 µM | SNB-19 2.81 µM | SW-620 1.85 µM | U-251 1.48 µM

Clc1nc(Cl)nc(Nc2cccc3ccccc23)n1
> 10 µM: HCT-15
active: OVCAR-3 0.0436 µM
inactive: A498 > 10 µM | A549 > 10 µM | ACHN > 10 µM | CAKI-1 > 10 µM | CCRF-CEM > 10 µM | COLO 205 > 10 µM | DU-145 > 10 µM | EKVX > 10 µM | HCC 2998 > 10 µM | HCT-116 > 10 µM | HL-60 7.98 µM | HOP-62 > 10 µM | HT-29 > 10 µM | Hs-578T > 10 µM | IGROV-1 > 10 µM | K562 > 10 µM | KM12 > 10 µM | LOX IMVI > 10 µM | M14 > 10 µM | MCF7 > 10 µM | MDA-MB-231 > 10 µM | MDA-MB-435 > 10 µM | MDA-N > 10 µM | MOLT-4 > 10 µM | Malme-3M > 10 µM | NCI-H226 > 10 µM | NCI-H23 > 10 µM | NCI-H460 > 10 µM | NCI-H522 > 10 µM | NCI/ADR-RES > 10 µM | OVCAR-4 > 10 µM | OVCAR-5 > 10 µM | OVCAR-8 > 10 µM | PC-3 > 10 µM | RPMI-8226 > 10 µM | RXF 393 > 10 µM | SF-268 > 10 µM | SF-295 > 10 µM | SF-539 > 10 µM | SK-MEL-28 > 10 µM | SK-MEL-2 > 10 µM | SK-MEL-5 > 10 µM | SK-OV-3 > 10 µM | SN12C > 10 µM | SNB-19 > 10 µM | SNB-75 > 10 µM | SR > 10 µM | SW-620 > 10 µM | T47D > 10 µM | TK-10 > 10 µM | U-251 > 10 µM | UACC-62 > 10 µM | UO-31 > 10 µM
